Assay results as given in ChEMBL document CHEMBL5150025, “Exploratory study of oxatomide derivatives with high P2X7 receptor inhibitory activity” (Bioorg Med Chem Lett, 2022).
pIC50: −log10 of the molar value.

These molecules were tested against T1, P2X purinoceptor 7 (Homo sapiens, UniProt Q99572) (assay: Antagonist activity at P2X7 receptor in human RPMI-8226 cells assessed as inhibition of ATP-induced Ca2+ influx by fura-2 staining based assay). Conditions: not given.
T1 sequence (Q99572 whole entry): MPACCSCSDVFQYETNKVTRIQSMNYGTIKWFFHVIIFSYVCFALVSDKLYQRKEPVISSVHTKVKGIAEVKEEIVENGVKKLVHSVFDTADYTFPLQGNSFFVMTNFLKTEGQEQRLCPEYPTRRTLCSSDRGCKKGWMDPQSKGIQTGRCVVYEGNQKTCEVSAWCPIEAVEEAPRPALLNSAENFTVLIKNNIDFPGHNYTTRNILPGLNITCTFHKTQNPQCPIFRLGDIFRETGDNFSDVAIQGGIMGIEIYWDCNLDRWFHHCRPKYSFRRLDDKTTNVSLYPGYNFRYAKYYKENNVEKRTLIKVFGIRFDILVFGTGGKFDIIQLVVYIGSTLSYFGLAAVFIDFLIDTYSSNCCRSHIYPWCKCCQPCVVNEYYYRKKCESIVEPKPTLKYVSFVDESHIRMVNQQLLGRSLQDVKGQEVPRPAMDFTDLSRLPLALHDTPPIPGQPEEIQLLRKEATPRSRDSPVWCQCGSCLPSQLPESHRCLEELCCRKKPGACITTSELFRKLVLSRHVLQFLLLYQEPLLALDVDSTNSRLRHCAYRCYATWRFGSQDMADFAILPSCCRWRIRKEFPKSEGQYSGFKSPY
Type: cell-based
For `O=c1[nH]c2ccccc2n1C/C=C/CN1CCN(C(c2ccccc2)c2ccccc2)CC1`, the pIC50 was < 5.00.
`Cc1cccc2c1ccn2CCCCN1CCN(C(c2ccccc2)c2ccccc2)CC1` showed a pIC50 of 5.28.
For `O=c1[nH]c2ccccc2n1CCCN1CCN(S(=O)(=O)c2ccc(F)cc2)CC1`, the pIC50 was < 5.00.
With `O=c1[nH]c2ccccc2n1CCCN1CCN(C2c3ccccc3CCc3ccccc32)CC1` the pIC50 was 5.28.
For `Cc1ccc(S(=O)(=O)N2CCN(CCCn3c(=O)[nH]c4ccccc43)CC2)cc1`, the pIC50 was < 5.00.
In the case of `COC(=O)c1cccc2ccn(CCCCN3CCN(C(c4ccccc4)c4ccccc4)CC3)c12`, the pIC50 was < 5.00.
Molecule `c1ccc(C(c2ccccc2)N2CCN(CCCCn3ncc4ccccc43)CC2)cc1` has a pIC50 of 6.72.
In the case of `c1ccc(-c2nc3ccccc3n2CCCCN2CCN(C(c3ccccc3)c3ccccc3)CC2)cc1`, the pIC50 was 5.92.
With `Fc1cc2ccn(CCCCN3CCN(C(c4ccccc4)c4ccccc4)CC3)c2cc1F` the pIC50 was 6.89.
Molecule `c1ccc(C(c2ccccc2)N2CCN(CCCCn3nnc4ccccc43)CC2)cc1` has a pIC50 of 6.32.
In the case of `Fc1cccc2c1ccn2CCCCN1CCN(C(c2ccccc2)c2ccccc2)CC1`, the pIC50 was 6.82.
In the case of `O=c1[nH]c2ccccc2n1CCCN1CCN(S(=O)(=O)c2ccc([N+](=O)[O-])cc2)CC1`, the pIC50 was < 5.00.
Molecule `Cc1nnnn1CCCCN1CCN(C(c2ccccc2)c2ccccc2)CC1` has a pIC50 of 5.35.
In the case of `O=c1[nH]c2ccccc2n1CCCCCN1CCN(C(c2ccccc2)c2ccccc2)CC1`, the pIC50 was 6.25.
`Cc1ccc2ccn(CCCCN3CCN(C(c4ccccc4)c4ccccc4)CC3)c2c1` showed a pIC50 of 5.19.
`Fc1ccc2c(ccn2CCCCN2CCN(C(c3ccccc3)c3ccccc3)CC2)c1` was tested, and the pIC50 was 6.92.
For `COc1ccc2c(ccn2CCCCN2CCN(C(c3ccccc3)c3ccccc3)CC2)c1`, the pIC50 was < 5.00.
Molecule `Cc1cccc2ccn(CCCCN3CCN(C(c4ccccc4)c4ccccc4)CC3)c12` has a pIC50 of 5.64.
In the case of `c1ccc(-c2nnnn2CCCCN2CCN(C(c3ccccc3)c3ccccc3)CC2)cc1`, the pIC50 was 5.49.
For `N#Cc1ccc2c(ccn2CCCCN2CCN(C(c3ccccc3)c3ccccc3)CC2)c1`, the pIC50 was 5.42.
Work on `N#Cc1cn(CCCCN2CCN(C(c3ccccc3)c3ccccc3)CC2)c2ccccc12` yielded a pIC50 of 5.82.
With `c1ccc(C(c2ccccc2)N2CCN(CCCCn3cncn3)CC2)cc1` the pIC50 was < 5.00.
For `O=c1[nH]c2ccccc2n1CCN1CCN(C(c2ccccc2)c2ccccc2)CC1`, the pIC50 was 6.02.
Work on `Cc1nccn1CCCCN1CCN(C(c2ccccc2)c2ccccc2)CC1` yielded a pIC50 of 5.47.
`O=c1[nH]c2ccccc2n1CCCN1CCN(C(c2ccccc2)c2ccccc2)CC1` [OXATOMIDE] showed a pIC50 of 6.08.
In the case of `Fc1ccc2ccn(CCCCN3CCN(C(c4ccccc4)c4ccccc4)CC3)c2c1`, the pIC50 was 6.96.
For `Cc1cc2ncn(CCCCN3CCN(C(c4ccccc4)c4ccccc4)CC3)c2cc1C`, the pIC50 was 6.11.
`Cc1nc2ccccc2n1CCCCN1CCN(C(c2ccccc2)c2ccccc2)CC1` gave a pIC50 of 6.07.
Molecule `c1ccc(C(c2ccccc2)N2CCN(CCCCn3ccc4ccccc43)CC2)cc1` has a pIC50 of 6.92.
`c1ccc(C(c2ccccc2)N2CCN(CCCCn3ccc4cccnc43)CC2)cc1` showed a pIC50 of 6.74.
`O=c1[nH]c2ccccc2n1CCCN1CCC(C(O)(c2ccccc2)c2ccccc2)CC1` was tested, and the pIC50 was 5.12.
`c1ccc(C(c2ccccc2)N2CCN(CCCCn3ccc4ncccc43)CC2)cc1` showed a pIC50 of 6.49.
`c1ccc(C(c2ccccc2)N2CCN(CCCCn3cnc4ccccc43)CC2)cc1` gave a pIC50 of 6.74.
For `O=c1[nH]c2ccccc2n1CCCN1CCC(=C(c2ccccc2)c2ccccc2)CC1`, the pIC50 was 5.62.
`O=c1[nH]c2ccccc2n1CCCCN1CCN(C(c2ccccc2)c2ccccc2)CC1` showed a pIC50 of 6.74.
For `O=C(C(c1ccccc1)c1ccccc1)N1CCN(CCCn2c(=O)[nH]c3ccccc32)CC1`, the pIC50 was 5.11.
`c1ccc(C(c2ccccc2)N2CCN(CCCCn3ccc4ccncc43)CC2)cc1` gave a pIC50 of 6.62.
Molecule `c1ccc(C(c2ccccc2)N2CCN(CCCCn3ccc4cnccc43)CC2)cc1` has a pIC50 of 6.34.

Each molecule was assayed against T2, P2X purinoceptor 7 (Homo sapiens) (UniProt Q99572) (assay: Antagonist activity at P2X7 receptor in human RPMI-8226 cells assessed as inhibition of ATP-induced Ca2+ influx at 10 uM by fura-2 staining based assay relative to control). Conditions: filed as antagonist.
T2 sequence (whole entry): T1 sequence (Q99572 whole entry)
Type: cell-based
Molecule `O=c1[nH]c2ccccc2n1C/C=C/CN1CCN(C(c2ccccc2)c2ccccc2)CC1` has an inhibition of 81%.
For `O=c1[nH]c2ccccc2n1CCCN1CCN(S(=O)(=O)c2ccc(F)cc2)CC1`, the inhibition was 87%.
`Cc1ccc(S(=O)(=O)N2CCN(CCCn3c(=O)[nH]c4ccccc43)CC2)cc1` showed an inhibition of 64%.
`O=c1[nH]c2ccccc2n1CCCN1CCN(S(=O)(=O)c2ccc([N+](=O)[O-])cc2)CC1` showed an inhibition of 72%.
In the case of `COc1ccc2c(ccn2CCCCN2CCN(C(c3ccccc3)c3ccccc3)CC2)c1`, the inhibition was 54%.
For `c1ccc(C(c2ccccc2)N2CCN(CCCCn3cncn3)CC2)cc1`, the inhibition was 87%.
